Values after ≈ are worked out from the molar mass of the structure shown. Active and inactive are the calls of the source. The calls are words filed in the database; no cut-off is given here.
What was measured:
Staphylococcus aureus [1] = assay: Growth inhibition of methicillin-resistant Staphylococcus aureus ATCC 43300 incubated for 18 hrs; format: organism-based
[2] = Cytotoxicity against HEK293 cells assessed as decrease in cell viability after 20 hrs by resazurin dye-based fluorescence assay; conditions: human
Escherichia coli = assay: Growth inhibition of Escherichia coli ATCC 25922 incubated for 18 hrs; format: organism-based
[3] = Haemolytic activity in sheep erythrocytes assessed as induction of haemolysis at 5 ug/ml incubated for 2 hrs relative to control; format: cell-based, Ovis aries, Erythrocyte; conditions: read-out: Activity
Acinetobacter baumannii = assay: Growth inhibition of Acinetobacter baumannii ATCC 19606 incubated for 18 hrs without shaking by absorbance based monochromator plate reader analysis; format: organism-based, ATCC 19606 = CIP 70.34 = JCM 6841; conditions: in vitro
Clostridioides difficile [4] = assay: Antibacterial activity against Clostridium difficile NSW132 RT027 incubated for 2 to 4 hrs in pre-reduced brucella broth supplemented with haemin/vitamin K and further incubation in anaerobic condition for 48 hrs; format: functional
Enterococcus faecalis = assay: Growth inhibition of Enterococcus faecalis ATCC 29212 incubated in MHB broth for 24 hrs; format: organism-based
Streptococcus pneumoniae = assay: Growth inhibition of Streptococcus pneumoniae ATCC 49619 incubated in MHB medium with lysed horse blood and 5% CO2 for 24 hrs; format: organism-based
[5] = Haemolytic activity in sheep erythrocytes assessed as induction of haemolysis at 50 ug/ml incubated for 2 hrs relative to control; format: cell-based, Ovis aries, Erythrocyte; conditions: read-out: Activity
Clostridioides difficile [6] = assay: Antibacterial activity against Clostridium difficile ATCC 700057 incubated for 2 to 4 hrs in pre-reduced brucella broth supplemented with haemin/vitamin K and further incubation in anaerobic condition for 48 hrs; format: functional
Pseudomonas aeruginosa = assay: Growth inhibition of Pseudomonas aeruginosa ATCC 27853 incubated for 18 hrs; format: organism-based
Staphylococcus aureus [7] = assay: Growth inhibition of Staphylococcus aureus ATCC 29213 incubated in MHB broth for 24 hrs; format: organism-based
Klebsiella pneumoniae = assay: Growth inhibition of Klebsiella pneumoniae ATCC 700603 incubated for 18 hrs; format: organism-based
Staphylococcus aureus [8] = assay: Induction of cytoplasmic membrane depolarization in Staphylococcus aureus ATCC 29213 at 8 ug/ml by DiSC3-5 dye based fluorescence method; format: organism-based
Staphylococcus aureus [9] = assay: Growth inhibition of methicillin resistant Staphylococcus aureus NCTC 10442 incubated in MHB medium for 24 hrs; format: organism-based
Staphylococcus aureus [10] = assay: Induction of cytoplasmic membrane permeabilization in Staphylococcus aureus ATCC 29213 at 8 ug/ml by propidium iodide staining based fluorescence method; format: organism-based
Clostridioides difficile [11] = assay: (§1) Antibacterial activity against Clostridium difficile ribotype 027 M7404 spores infected in antibiotic cocktail-induced CDI C57BL/6J mouse model assessed as decrease in fecal spore load at 100 mg/kg administered via oral gavage for every 12 hrs starting from 6 hrs post-infection and measured at 24 hrs post infection by heat shock based plating method; format: functional, organism-based; conditions: genomovar ribotype 027 M7404
Clostridioides difficile [12] = assay: as §1, with “diarrhea” for “fecal spore load”, “infection” for “infection by heat shock based plating method”; format: functional, organism-based; conditions: genomovar ribotype 027 M7404
Clostridioides difficile [13] = assay: as §1, with “physiological appearance score” for “fecal spore load”, “infection” for “infection by heat shock based plating method”; format: functional, organism-based; conditions: genomovar ribotype 027 M7404
Clostridioides difficile [14] = assay: as §1, with “protection against bacterial infection” for “decrease in fecal spore load”, “2 days” for “24 hrs”, “infection” for “infection by heat shock based plating method”; format: functional, organism-based; conditions: genomovar ribotype 027 M7404
Clostridioides difficile [15] = assay: as §1, with “weight loss” for “fecal spore load”, “infection” for “infection by heat shock based plating method”; format: functional, organism-based; conditions: genomovar ribotype 027 M7404

Row | SMILES | MIC (Staphylococcus aureus [1]) [µg/mL] | CC50 at 20 h [2] [µg/mL] | MIC (Escherichia coli) [µg/mL] | MIC (Acinetobacter baumannii) [µg/mL] | MIC (Clostridioides difficile [4]) [µg/mL] | MIC (Enterococcus faecalis) [µg/mL] | MIC (Streptococcus pneumoniae) [µg/mL] | MIC (Clostridioides difficile [6]) [µg/mL] | MIC (Pseudomonas aeruginosa) [µg/mL] | MIC (Staphylococcus aureus [7]) [µg/mL] | MIC (Klebsiella pneumoniae) [µg/mL] | further results
1 | CC(C)CCOc1ccccc1-c1ccccc1OCc1cn([C@H](CCCNC(=N)N)C(=O)N[C@H](CCCCN)Cn2cc(CC3CCCCC3)nn2)nn1.Cl.Cl | 8 | > 32 | 16 | 16 | 16 | 4 | 2 | 8 | 16 | 4 | 16 | hemolysis at 2 h, 5 ug/ml [3]: 1.6%; hemolysis at 2 h, 50 ug/ml [5]: 33.7%
2 | CN[C@H](CC(C)C)C(=O)N[C@H]1C(=O)N[C@@H](CC(N)=O)C(=O)N[C@H]2C(=O)N[C@H]3C(=O)N[C@H](C(=O)N[C@H](C(=O)O)c4cc(O)cc(O)c4-c4cc3ccc4O)[C@H](O)c3ccc(c(Cl)c3)Oc3cc2cc(c3O[C@@H]2O[C@H](CO)[C@@H](O)[C@H](O)[C@H]2O[C@H]2C[C@](C)(N)[C@H](O)[C@H](C)O2)Oc2ccc(cc2Cl)[C@H]1O [VANCOMYCIN] | 1 (≈ 0.69 µM) |  |  |  | 0.5 (≈ 0.345 µM) | 4 (≈ 2.76 µM) | 1 (≈ 0.69 µM) | 0.5 (≈ 0.345 µM) |  | 1 (≈ 0.69 µM) |  | Activity (Staphylococcus aureus [8]): inactive; MIC (Staphylococcus aureus [9]): 1 µg/mL (≈ 0.69 µM); Activity (Staphylococcus aureus [10]): inactive
3 | CC(C)CCOc1ccccc1-c1ccccc1OCc1cn([C@H](CCCNC(=N)N)C(=O)NCCc2ccc(F)cc2)nn1.Cl | 16 | 19.1 | > 32 | > 32 | 64 | 4 | 4 | 64 | > 32 | 4 | > 32 | 
4 | CC(C)CCOc1ccccc1-c1ccccc1OCc1cn([C@H](CCCCN)C(=O)N[C@H](CCCNC(=N)N)Cn2cc(Cc3ccccc3)nn2)nn1.Cl.Cl | 4 | 17.1 | 8 | 16 | 16 | 8 | 4 | 8 | 16 | 4 | 32 | 
5 | CC(C)CCOc1ccccc1-c1ccccc1OCc1cn(C[C@@H](CCCCN)NC(=O)[C@@H](CCCNC(=N)N)n2cc(C3CCCCC3)nn2)nn1.Cl.Cl |  |  |  |  |  |  |  | 4 |  |  |  | Activity (Clostridioides difficile [11]): inactive; Activity (Clostridioides difficile [12]): inactive; Activity (Clostridioides difficile [13]): inactive; Activity (Clostridioides difficile [14]): inactive; Activity (Clostridioides difficile [15]): inactive
6 | CC(C)CCOc1ccc2ccccc2c1-c1c(OCc2cn([C@H](CCCCN)C(=O)N[C@H](CCCNC(=N)N)C(=O)NCCc3ccccc3)nn2)ccc2ccccc12.Cl.Cl | 2 | 15.2 | > 32 | 8 | 32 | 4 | 8 | 16 | 32 | 8 | 16 | 
7 | CC(C)CCOc1ccccc1-c1ccccc1OCc1cn([C@H](CCCCN)C(=O)NCc2ccc(C(F)(F)F)cc2)nn1.Cl | 8 | > 32 | > 32 | 32 | 32 | 4 | 8 | 32 | > 32 | 4 | > 32 | 
8 | CC(C)CCOc1ccc2ccccc2c1-c1c(OCc2cn([C@H](CCCCN)C(=O)N[C@H](CCCNC(=N)N)C(=O)NCc3ccccc3)nn2)ccc2ccccc12.Cl.Cl | 4 | 17.4 | > 32 | 32 | 16 | 8 | 8 | 16 | 32 | 8 | 32 | 
9 | CC(C)CCOc1ccccc1-c1ccccc1OCc1cn(C[C@@H](CCCCN)NC(=O)[C@@H](CCCNC(=N)N)n2cc(CC3CCCCC3)nn2)nn1.Cl.Cl |  |  |  |  |  |  |  | 1 |  |  |  | Activity (Clostridioides difficile [11]): inactive; Activity (Clostridioides difficile [12]): inactive; Activity (Clostridioides difficile [13]): inactive; Activity (Clostridioides difficile [14]): inactive; Activity (Clostridioides difficile [15]): inactive
